From article PMC2746433 (Biochemistry, 2009) come the findings set out here.

Where two headings read alike, the source gives them in different places. Residues, ends and D or L forms follow the SMILES beside them. No end group written: not given here. fluorescein = fluorescein (label on the N-terminus)

One experiment has as its target E. coli ExoI (Escherichia coli, UniProt P04995). The experiment in a line: Peptide competition-binding assay.
For experiment [1], the target named is ExoI/SSB/ssDNA ternary complex (Escherichia coli, UniProt P04995). The experiment is described as follows: Exonuclease assay: inhibition of SSB-stimulated ExoI nuclease activity. Format: biochemical, E. coli.
Experiment [2] addresses T1, E. coli Exonuclease I (E. coli) (UniProt P04995).
T1 sequence: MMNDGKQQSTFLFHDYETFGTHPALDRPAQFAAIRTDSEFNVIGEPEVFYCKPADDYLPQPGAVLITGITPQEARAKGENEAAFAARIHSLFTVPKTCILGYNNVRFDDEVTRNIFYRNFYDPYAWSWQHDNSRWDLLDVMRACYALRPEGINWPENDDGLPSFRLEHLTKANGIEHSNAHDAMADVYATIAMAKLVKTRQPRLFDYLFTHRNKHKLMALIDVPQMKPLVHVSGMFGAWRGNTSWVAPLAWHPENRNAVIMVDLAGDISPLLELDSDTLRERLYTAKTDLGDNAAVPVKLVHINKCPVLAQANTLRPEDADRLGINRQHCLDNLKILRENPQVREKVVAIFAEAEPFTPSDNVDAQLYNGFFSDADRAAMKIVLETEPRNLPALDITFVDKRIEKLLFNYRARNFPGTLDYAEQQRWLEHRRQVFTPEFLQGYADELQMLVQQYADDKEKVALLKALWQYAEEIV
The experiment in a line: fluorescence polarisation.

The target in experiment [3] is T2, E. coli Exonuclease I (E. coli, UniProt P04995 1-475).
T2 sequence (looked up): T1 sequence
The experiment in a line: fluorescence polarisation.

Experiment [4] concerns the target T2, E. coli Exonuclease I. The experiment is described as follows: fluorescence polarisation. This is another data set of the same source.
The target in experiment [5] is T2, E. coli Exonuclease I.

Take `CC[C@H](C)[C@H](NC(=O)[C@@H](N)Cc1c[nH]c2ccccc12)C(=O)N1CCC[C@H]1C(=O)N[C@@H](Cc1ccccc1)C(=O)O` [WIPF] (H-WIPF-OH): the results for the IC50 (on E. coli ExoI; in experiment [1]) were 252 ± 12 µM and greater than 100 µM, respectively.

As for SSB-Ct Phe-to-Tyr variant peptide …, in experiment [2], the IC50 is 382 µM and the K (bind) (apparent inhibitor dissociation constant) is 79 µM.

For the molecule SSB-Ct Pro-to-Ser variant peptide …, in experiment [2], the IC50 worked out at 52.9 µM and the K (bind) (apparent inhibitor dissociation constant) came out at 10.8 µM.

For the molecule WDDDIPF [WDDDIPF], the half-maximal inhibitory concentration (IC50) in experiment [1] was roughly 40 µM.

WDDIPF [WDDIPF] came in with an IC50 in experiment [1] of roughly 40 µM.

Regarding WDFDDDIPF [WDFDDDIPF], in experiment [1], the IC50 was roughly 1 µM.

On to WDIPF [WDIPF, Trp-Asp-Ile-Pro-Phe], for which the IC50 in experiment [1] was greater than 100 µM.

In turn, WFDDDIPF [WFDDDIPF] showed an IC50 in experiment [1] of roughly 10 µM.

For the molecule WMAFAAAIPF [WMAFAAAIPF], the IC50 at E. coli ExoI is 169 ± 15 µM; in experiment [1], roughly 20 µM.

For WMAFDDDIPF [WMAFDDDIPF], the IC50 on E. coli ExoI was 11.6 ± 0.9 µM; in experiment [1], roughly 1 µM.

Regarding WMDFADDIPF [WMDFADDIPF], the IC50 is 8.5 ± 0.3 µM on E. coli ExoI and roughly 1 µM in experiment [1].

As for WMDFDADIPF [WMDFDADIPF], the IC50 on E. coli ExoI is 6.7 ± 0.3 µM; in experiment [1] it was roughly 1 µM.

For WMDFDDAIPF [WMDFDDAIPF], the IC50 on E. coli ExoI is 9.3 ± 0.3 µM; in experiment [1], roughly 1 µM.

WMDFDDD [WMDFDDD]: the IC50 on E. coli ExoI is greater than 1000 µM; in experiment [1] it was roughly 40 µM.

Consider WMDFDDDI [WMDFDDDI], for which the results for the IC50 (on E. coli ExoI; in experiment [1]) were greater than 1000 µM and roughly 40 µM, respectively.

WMDFDDDIP [WMDFDDDIP]: the IC50 on E. coli ExoI was greater than 1000 µM; in experiment [1], roughly 40 µM.

In turn, “WMDFDDDIPF [WMDFDDDIPF, Trp-Met-Asp-Phe-Asp-Asp-Asp-Ile-Pro-Phe]” had an IC50 in experiment [1] of roughly 1 µM.

Turning to WMDFDDDIPY [WMDFDDDIPY], the IC50 was 382 ± 41 µM on E. coli ExoI and roughly 10 µM in experiment [1].

Consider WMDFDDDISF [WMDFDDDISF], for which the IC50 is 52.9 ± 3.5 µM at E. coli ExoI and roughly 10 µM in experiment [1].

For WMDFDDD [SSB-Ct C-terminal truncation peptide WMDFDDD], the “K_(bind) (apparent inhibitor dissociation constant)” value with E. coli Exonuclease I [3] was greater than 200 µM.

Take WMDFDDDI [SSB-Ct C-terminal truncation peptide WMDFDDDI]: the “K_(bind) (apparent inhibitor dissociation constant)” value with E. coli Exonuclease I [3] was greater than 200 µM.

In the case of WDFDDDIPF [SSB-Ct N-terminal truncation peptide WDFDDDIPF], in the experiment with E. coli Exonuclease I [3], the IC50 was determined as 4.3 ± 0.1 µM and the “K_(bind) (apparent inhibitor dissociation constant)” value was 0.7 ± 0.1 µM.

On to WDIPF [SSB-Ct N-terminal truncation peptide WDIPF], for which, in the experiment with E. coli Exonuclease I [3], the IC50 was found to be 79.1 ± 2.9 µM and the “K_(bind) (apparent inhibitor dissociation constant)” value was 16.2 ± 0.6 µM.

For WMDFDDDIPF [SSB-Ct peptide WMDFDDDIPF (wild type)], in the experiment with E. coli Exonuclease I [3], the IC50 is 5.2 ± 0.2 µM and the “K_(bind) (apparent inhibitor dissociation constant)” value turned out to be 0.9 ± 0.1 µM.

Take WFDDDIPF [SSB-Ct N-terminal truncation peptide WFDDDIPF]: in the experiment with E. coli Exonuclease I [3], the IC50 came to 12.1 ± 0.7 µM and the “K_(bind) (apparent inhibitor dissociation constant)” value worked out at 2.3 ± 0.1 µM.

Take WIPF [SSB-Ct N-terminal truncation peptide WIPF]: in experiment [2], the K (bind) (apparent inhibitor dissociation constant) was 52 µM.

On to fluorescein-WMDFDDDIPF [F-SSB-Ct (SSB-Ct with an N-terminal fluorescein)], for which the figures for the dissociation constant Kd with E. coli Exonuclease I [4] and with E. coli Exonuclease I [5] were 261 ± 22 nM and 178 ± 10 nM, respectively.

On to WDDIPF [SSB-Ct N-terminal truncation peptide WDDIPF], for which, in the experiment with E. coli Exonuclease I [3], the concentration for half-maximal inhibition (IC50) was 33.5 ± 2.6 µM and the “K_(bind) (apparent inhibitor dissociation constant)” value was found to be 6.8 ± 0.1 µM.

Turning to WMDFDDDIP [SSB-Ct C-terminal truncation peptide WMDFDDDIP], the “K_(bind) (apparent inhibitor dissociation constant)” value in the experiment with E. coli Exonuclease I [3] is greater than 200 µM.

For the molecule WDDDIPF [SSB-Ct N-terminal truncation peptide WDDDIPF], in the experiment with E. coli Exonuclease I [3], the IC50 turned out to be 25.3 ± 0.9 µM and the “K_(bind) (apparent inhibitor dissociation constant)” value came to 5.1 ± 0.8 µM.
